Measured values from patent publication US20240174723A1, “STAPLED ANTIMICROBIAL PEPTIDES (STAMPS) AND USES THEREOF” (Lytica Therapeutics, Inc., priority 2021, published 2024).
In brackets after ≈: the same amount, converted by molar mass. Positions of bridges follow the written chain, without caps; N, C: chain ends. Non-standard residues stand in square brackets, D forms with d. Residues, ends and D or L forms follow the SMILES beside them. S5 = C=CCCC[C@](C)(N)C(=O)O; Dap = NC[C@H](N)C(=O)O

Legend:
S. aureus = format: cell-based, Staphylococcus aureus
How it was run: (§1)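 Broth microdilution adapted from CLSI in Mueller-Hinton broth or cation-adjusted MHB. Overnight 37 °C cultures were regrown 3-4 h, then added to serially diluted peptide at a final 5×10^5 CFU/ml. After 20-24 h at 37 °C, MIC was the lowest peptide concentration with no visible growth.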

in vitro = format: cell-based; conditions: human, Inhibitory Concentration at 50% Cytotoxicity (IC50) Human Liver Cells (HepG2)
How it was run: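 HepG2 cells in EMEM with 10% FBS, allowed 4 h to attach, then exposed to serial dilutions of StAMPs (from a 5 mg/mL water stock) or vehicle. After 48 h at 37 °C, viability read by CellTiter-Glo luminescence.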

E. coli = format: cell-based, Escherichia coli
How it was run: as §1

A. baumannii = format: cell-based, Acinetobacter baumannii
How it was run: as §1

K. pneumoniae = format: cell-based, Klebsiella pneumoniae
How it was run: as §1

P. aeruginosa = format: cell-based, Pseudomonas aeruginosa
How it was run: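 Broth microdilution adapted from CLSI in MHB or cation-adjusted MHB; log-phase P. aeruginosa at 5×10^5 CFU/ml final with serially diluted stapled peptides. Incubated 20-24 h at 37 °C; MIC is the lowest concentration without visible growth.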

Structure (SMILES)	Minimum Inhibitory Concentration (MIC) S. aureus (S. aureus)	Minimum Inhibitory Concentration (MIC) E. coli (E. coli)	Minimum Inhibitory Concentration (MIC) A. baumannii (A. baumannii)	Minimum Inhibitory Concentration (MIC) K. pneumoniae (K. pneumoniae)	Minimum Inhibitory Concentration (MIC) P. aeruginosa (P. aeruginosa)	IC50 at 48 hours (in vitro)
CC(C)[C@@H]1NC(=O)[C@@](C)(NC(=O)[C@H](C)NC(=O)[C@H](CCCCN)NC(=O)[C@H](CO)NC(=O)[C@H](Cc2ccccc2)NC(=O)[C@H](CCCCN)NC(=O)[C@H](CCCCN)NC(=O)[C@H](CCCCN)NC(=O)[C@H](CCCCN)NC(=O)[C@H](CN)NC(=O)[C@]2(C)CCCC=CCCC[C@](C)(NC(=O)CN)C(=O)NCC(=O)N[C@@H](CCCCN)C(=O)N[C@@H](Cc3ccccc3)C(=O)N2)CCCC=CCCC[C@@](C)(C(=O)N[C@@H](C)C(=O)N[C@@H](CCCCN)C(=O)N[C@@H](CCCCN)C(N)=O)NC(=O)[C@H](CCC(=O)O)NC(=O)CNC1=O [compound 86] (H-G[S5]GKF[S5][Dap]KKKKFSKA[S5]VGE[S5]AKK-NH2; staple 2-6, 16-20)	64 µg/mL	2 µg/mL	1 µg/mL	32 µg/mL	1 µg/mL	> 200 µg/mL
CC(C)[C@@H]1NC(=O)[C@@](C)(NC(=O)[C@H](C)NC(=O)[C@H](CCCCN)NC(=O)CNC(=O)[C@H](Cc2ccccc2)NC(=O)[C@H](CCCCN)NC(=O)[C@H](CCCCN)NC(=O)[C@H](CCCCN)NC(=O)[C@H](CO)NC(=O)[C@H](CN)NC(=O)[C@]2(C)CCCC=CCCC[C@](C)(NC(=O)CN)C(=O)NCC(=O)N[C@@H](CCCCN)C(=O)N[C@@H](Cc3ccccc3)C(=O)N2)CCCC=CCCC[C@@](C)(C(=O)N[C@@H](C)C(=O)N[C@@H](CCCCN)C(=O)N[C@@H](CCCCN)C(N)=O)NC(=O)[C@H](CCC(=O)O)NC(=O)CNC1=O [compound 85] (H-G[S5]GKF[S5][Dap]SKKKFGKA[S5]VGE[S5]AKK-NH2; staple 2-6, 16-20)	64 µg/mL	2 µg/mL	0.5 µg/mL	16 µg/mL	2 µg/mL	> 200 µg/mL
CC(C)[C@@H]1NC(=O)[C@@](C)(NC(=O)[C@H](C)NC(=O)[C@H](CCCCN)NC(=O)CNC(=O)[C@H](Cc2ccccc2)NC(=O)[C@H](CCCCN)NC(=O)[C@H](CCCCN)NC(=O)[C@H](CCCCN)NC(=O)[C@H](CCCCN)NC(=O)[C@H](CCN)NC(=O)[C@]2(C)CCCC=CCCC[C@](C)(NC(=O)CN)C(=O)NCC(=O)N[C@@H](CCCCN)C(=O)N[C@@H](Cc3ccccc3)C(=O)N2)CCCC=CCCC[C@@](C)(C(=O)N[C@@H](C)C(=O)N[C@@H](CCCCN)C(=O)N[C@@H](CCCCN)C(N)=O)NC(=O)[C@H](CCC(=O)O)NC(=O)CNC1=O (single isomer, unassigned) [compound 41]	>64 µg/mL	2 µg/mL	2 µg/mL	4 µg/mL	4 µg/mL	115 µg/mL (≈ 45.3 µM)
CC(C)[C@@H]1NC(=O)[C@H](C(C)C)NC(=O)[C@@](C)(NC(=O)[C@H](C)NC(=O)[C@H](CCCCN)NC(=O)CNC(=O)[C@@H](Cc2ccccc2)NC(=O)[C@H](CCCCN)NC(=O)[C@H](CCCCN)NC(=O)[C@H](CCCCN)NC(=O)[C@H](CCCCN)NC(=O)[C@H](Cc2c[nH]cn2)NC(=O)[C@]2(C)CCCC=CCCC[C@](C)(NC(=O)CN)C(=O)NCC(=O)N[C@@H](CCCCN)C(=O)N[C@H](Cc3ccccc3)C(=O)N2)CCCC=CCCC[C@@](C)(C(=O)N[C@@H](C)C(=O)N[C@@H](CCCCN)C(=O)N[C@@H](CCCCN)C(N)=O)NC(=O)[C@H](CCC(=O)O)NC1=O [compound 28] (H-G[S5]GK[dF][S5]HKKKK[dF]GKA[S5]VVE[S5]AKK-NH2; staple 2-6, 16-20)	>64 µg/mL	64 µg/mL	16 µg/mL	>64 µg/mL	64 µg/mL	201 µg/mL (≈ 76.9 µM)

The next lines start with results.

Minimum Inhibitory Concentration (MIC) S. aureus (S. aureus)	Minimum Inhibitory Concentration (MIC) E. coli (E. coli)	Minimum Inhibitory Concentration (MIC) A. baumannii (A. baumannii)	Minimum Inhibitory Concentration (MIC) K. pneumoniae (K. pneumoniae)	Minimum Inhibitory Concentration (MIC) P. aeruginosa (P. aeruginosa)	Structure (SMILES)	IC50 at 48 hours (in vitro)
>64 µg/mL	16 µg/mL	4 µg/mL	>64 µg/mL	16 µg/mL	CC(C)[C@@H]1NC(=O)[C@@](C)(NC(=O)[C@H](CO)NC(=O)[C@H](CCCCN)NC(=O)CNC(=O)[C@H](Cc2ccccc2)NC(=O)[C@H](CCCCN)NC(=O)[C@H](CCCCN)NC(=O)[C@H](CCCCN)NC(=O)[C@H](CCCCN)NC(=O)[C@H](CCCCN)NC(=O)[C@]2(C)CCCC=CCCC[C@](C)(NC(=O)CN)C(=O)NCC(=O)N[C@@H](CCCCN)C(=O)N[C@@H](Cc3ccccc3)C(=O)N2)CCCC=CCCC[C@@](C)(C(=O)N[C@@H](C)C(=O)N[C@@H](CCCCN)C(=O)N[C@@H](CCCCN)C(=O)NCC(=O)NCC(=O)N[C@@H](CCC(=O)O)C(N)=O)NC(=O)[C@H](CCC(=O)O)NC(=O)CNC1=O [compound 92] (H-G[S5]GKF[S5]KKKKKFGKS[S5]VGE[S5]AKKGGE-NH2; staple 2-6, 16-20)	> 200 µg/mL
>64 µg/mL	16 µg/mL	8 µg/mL	64 µg/mL	16 µg/mL	CC(C)[C@@H]1NC(=O)[C@@](C)(NC(=O)[C@H](C)NC(=O)[C@H](CCCCN)NC(=O)CNC(=O)[C@H](Cc2ccccc2)NC(=O)[C@H](CCCCN)NC(=O)[C@H](CCCCN)NC(=O)[C@H](CCCCN)NC(=O)[C@H](CCCCN)NC(=O)[C@H](CCCCN)NC(=O)[C@]2(C)CCCC=CCCC[C@](C)(NC(=O)CN)C(=O)NCC(=O)N[C@@H](CCCCN)C(=O)N[C@@H](Cc3ccccc3)C(=O)N2)CCCC=CCCC[C@@](C)(C(=O)N[C@@H](C)C(=O)N[C@@H](CCCCN)C(=O)N[C@@H](CCCCN)C(=O)NCC(=O)NCC(=O)N[C@@H](CCC(=O)O)C(=O)N[C@@H](CCC(=O)O)C(N)=O)NC(=O)[C@H](CCC(=O)O)NC(=O)CNC1=O [compound 55] (H-G[S5]GKF[S5]KKKKKFGKA[S5]VGE[S5]AKKGGEE-NH2; staple 2-6, 16-20)	207 µg/mL (≈ 70.5 µM)
64 µg/mL	4 µg/mL	1 µg/mL	64 µg/mL	2 µg/mL	CC(C)[C@@H]1NC(=O)[C@@](C)(NC(=O)[C@H](CO)NC(=O)[C@H](CCCCN)NC(=O)CNC(=O)[C@H](Cc2ccccc2)NC(=O)[C@H](CCCCN)NC(=O)[C@H](CCCCN)NC(=O)[C@H](CCCCN)NC(=O)[C@H](CCCCN)NC(=O)[C@H](CN)NC(=O)[C@]2(C)CCCC=CCCC[C@](C)(NC(=O)CN)C(=O)NCC(=O)N[C@@H](CCCCN)C(=O)N[C@@H](Cc3ccccc3)C(=O)N2)CCCC=CCCC[C@@](C)(C(=O)N[C@@H](C)C(=O)N[C@@H](CCCCN)C(=O)N[C@@H](CCCCN)C(N)=O)NC(=O)[C@H](CCC(=O)O)NC(=O)CNC1=O [compound 87] (H-G[S5]GKF[S5][Dap]KKKKFGKS[S5]VGE[S5]AKK-NH2; staple 2-6, 16-20)	> 200 µg/mL
